Reference: US20060154880A1, “Methods and compositions using immunomodulatory compounds for treatment and management of parasitic diseases” (priority 2004, published 2006)

Key:
[1] = cited from earlier work; for hygroscopicity: polymorphic form, solid state; for stability / interconversion of polymorphic form: solvent system as stated
TNF-α production = experiment: Inhibition of TNF-α production following LPS-stimulation of human PBMC; type: cell-based
T-cells = experiment: Stimulation of T-cell proliferation following primary induction by TCR activation; type: cell-based
IL-2 production = experiment: Augmentation of IL-2 production following TCR activation of PBMC; type: cell-based
IFN-γ production = experiment: Augmentation of IFN-γ production following TCR activation of T-cells; type: cell-based
IL-1β production = experiment: LPS-stimulated production of IL-1β by PBMC; type: cell-based
IL-6 production = experiment: LPS-stimulated production of IL-6 by PBMC; type: cell-based
IL-10 production = experiment: LPS-stimulated production of IL-10 by PBMC; type: cell-based

Question: Which hygroscopicity [1] does the source give for `Nc1cccc2c1CN(C1CCC(=O)NC1=O)C2=O` (stereo not shown) [Form A, 3-(4-amino-1-oxo-1,3 dihydro-isoindol-2-yl)-piperidene-2,6-dione] here?
Answer: The hygroscopicity was “weakly or not hygroscopic”.

Question: And the “stability / interconversion of polymorphic form” value (“stability / interconversion” below) [1]?
Answer: The value was “most thermodynamically stable anhydrous polymorph”.

Question: For `Nc1cccc2c1CN(C1CCC(=O)NC1=O)C2=O` (stereo not shown) [Form C, 3-(4-amino-1-oxo-1,3 dihydro-isoindol-2-yl)-piperidene-2,6-dione], which hygroscopicity [1] is on record?
Answer: Its hygroscopicity is “not hygroscopic below about 85% RH”.

Question: For `Nc1cccc2c1CN(C1CCC(=O)NC1=O)C2=O` (stereo not shown), which “effect on LPS-stimulated production of TNF-α by PBMC” value (TNF-α production) is on record?
Answer: The value was “dose-dependent inhibition”.

Question: And the “potency relative to thalidomide in stimulating the proliferation of T-cells” value (T-cells)?
Answer: Its value is 50-100 times.

Question: And the “potency relative to thalidomide in augmenting the production of IL-2” value (IL-2 production)?
Answer: Its value is 50-100 times.

Question: And the “potency relative to thalidomide in augmenting the production of IFN-γ” value (IFN-γ production)?
Answer: Its value is 50-100 times.

Question: And the “effect on LPS-stimulated production of IL-1β by PBMC” value (IL-1β production)?
Answer: Its value is “dose-dependent inhibition”.

Question: What about the “effect on LPS-stimulated production of IL-6 by PBMC” value (IL-6 production) of the same compound?
Answer: The value was “dose-dependent inhibition”.

Question: What about the “effect on production of the anti-inflammatory cytokine IL-10” value (IL-10 production) of the same compound?
Answer: The value was “increased production”.

Question: For `Nc1cccc2c1CN(C1CCC(=O)NC1=O)C2=O` (stereo not shown) [Form E, 3-(4-amino-1-oxo-1,3 dihydro-isoindol-2-yl)-piperidene-2,6-dione], which “stability / interconversion” value [1] is on record?
Answer: The value was “most stable form”.

Question: Which hygroscopicity [1] does the source give for `Nc1cccc2c1CN(C1CCC(=O)NC1=O)C2=O` (stereo not shown) [Form D, 3-(4-amino-1-oxo-1,3 dihydro-isoindol-2-yl)-piperidene-2,6-dione] here?
Answer: Its hygroscopicity is “either weakly or not hygroscopic”.

Question: For `Nc1cccc2c1CN(C1CCC(=O)NC1=O)C2=O` (stereo not shown) [Form B, 3-(4-amino-1-oxo-1,3 dihydro-isoindol-2-yl)-piperidene-2,6-dione], which “stability / interconversion” value [1] is on record?
Answer: Its value is “converts to Form E in aqueous solvent systems”.
